Residues, ends and D or L forms follow the SMILES beside them.
How the values were obtained:
[1] = Detection of R7 in mouse blood after injection (RP-HPLC); format: in vivo; details: R7 10 ~ 50 mg/kg intraperitoneal, intravenous or subcutaneous, blood at 5, 30, 60 and 120 min
Procedure: To further study the cleavage efficiency of chimeric peptide R7, the mice were injected with R7 (10 ~ 50 mg/kg) by different routes, including intraperitoneal, intravenous or subcutaneous ones, respectively; blood was taken from the orbits at different time (5, 30, 60, and 120 min, respectively) and detected by RP-HPLC. […] Here are several conditions that may negatively impact RP-HPLC detection results: (i) R7 may bind to other proteins such as plasma protein and form aggregates; (ii) the concentration of R7 after cleavage was too low to detect target peptide by RP-HPLC; (iii) R7 may be degraded by some cellular proteases present in serum in vivo[45]. Furthermore, we used more sensitive liquid chromatograph mass spectrometer (LC-MS) to detect R7 and its possible degradation products in mice. […] We further used MALDI-TOF MS with higher resolution to analyze R7 degradation products in blood. As shown in Supplementary Table 5, R7 was cleaved into two dual-function fragments in the serum principally, including one from position 1 to 15 that can target LPS and the other mainly from position 18 to 35 that has antibacterial activity. […] In addtion, in vivo stability of peptides in blood has been well modeled by ex vivo stability in serum. […] In fact, several strategies have been proposed to improve the stability of AMPs. […]

[2] = test system: E. coli, S. typhimurium and S. aureus; format: cell-based; details: tested S. aureus strains
Procedure: The minimum inhibitory concentration (MIC) and minimum bactericidal concentration (MBC) of peptides were determined by the microtiter broth dilution method according to Clinical and Laboratory Standards Institute (CLSI) guidelines. […] PBS was used as the negative control. […] The MBC value was calculated as the lowest concentration of peptides resulting in a 99.9% reduction of the original inoculum. All experiments were repeated three times.

[3] = test system: MDR E. coli CVCC195; test: Antibacterial activity after incubation in mouse serum (inhibition zone); format: cell-based, Escherichia coli; details: until 8 h of incubation
Procedure: Serum stability of R7 and its parent-L7 was tested as previously described with minor modifications[46],[53]. Briefly, each peptide was added to the 25% mouse serum to a final concentration of 0.5 mM; 250 µL aliquots of samples were taken at 0, 0.5, 1, 2, 4 and 8 h, and mixed with 20 µL 15% trichloroacetic acid (TCA). The samples were incubated at 4 °C for 15 min and centrifuged for 10 min at 12,000 rpm. The supernatants were analyzed by RP-HPLC or inhibition zone method. Moreover, after incubation in serum for 2 h, R7 was analyzed by matrix assisted laser desorption/ionization-time of flight mass spectrometry (MALDI-TOF MS) and high-performance liquid chromatography-mass spectrometry (HPLC-MS), respectively.

CSCC[C@H](NC(=O)[C@H](CCCNC(=N)N)NC(=O)[C@H](Cc1c[nH]c2ccccc12)NC(=O)[C@H](C)NC(=O)[C@H](Cc1c[nH]c2ccccc12)NC(=O)[C@H](CCCNC(=N)N)NC(=O)[C@H](Cc1c[nH]c2ccccc12)NC(=O)[C@H](C)NC(=O)[C@H](CCCCN)NC(=O)[C@H](Cc1ccccc1)NC(=O)[C@H](CCCNC(=N)N)NC(=O)[C@H](CCCNC(=N)N)NC(=O)[C@H](CCCCN)NC(=O)[C@H](CCCNC(=N)N)NC(=O)[C@H](CCCCN)NC(=O)[C@H](Cc1ccccc1)NC(=O)[C@H](Cc1ccccc1)NC(=O)[C@H](CO)NC(=O)[C@H](C)NC(=O)[C@H](CCCNC(=N)N)NC(=O)[C@@H](NC(=O)[C@H](CCCCN)NC(=O)[C@H](Cc1c[nH]c2ccccc12)NC(=O)[C@H](CCCNC(=N)N)NC(=O)CNC(=O)[C@H](CCC(N)=O)NC(=O)[C@@H](NC(=O)[C@@H](N)CCCNC(=N)N)C(C)C)C(C)C)C(=O)N[C@@H](CCCCN)C(=O)N[C@@H](CCCCN)C(=O)N[C@@H](CC(C)C)C(=O)N[C@@H](C)C(=O)N[C@@H](C)C(=O)N1CCC[C@H]1C(=O)N[C@@H](CO)C(=O)O [R7] (H-RVQGRWKVRASFFKRKRRFKAWRWAWRMKKLAAPS-OH)
target peak in mouse blood [1]: not detected | increase of activity compared to parent peptides (LBP14-RKRR and L7) [2]: ≥ 2 fold | change of antibacterial activity in mouse serum [3]: did not changed

— publication PMC10654507, “A cleavable chimeric peptide with targeting and killing domains enhances LPS neutralization and antibacterial properties against multi-drug resistant E. coli” (Communications Biology, 2023)
